In the OligoGym collection:
After the bases stand the sugars from the 5' end (letter, count) and the backbone: PS all phosphorothioate, else s phosphorothioate and o phosphodiester by linkage. Methylation of C is not given here. e = 2'-O-(2-methoxyethyl) (MOE); k = constrained ethyl (cEt); d = 2'-deoxy (DNA); m = 2'-O-methyl

Biological target: HSD17B13
Conditions: ASO, HepaRG

Row | Sequence | target mRNA inhibition (1 µM) | further results
1 | GCATCTTAAGATACCC (sugars k3 d9 k3 e1, PS) | 84% | target mRNA inhibition (0.02 µM): 28%; target mRNA inhibition (0.078 µM): 34%; target mRNA inhibition (0.313 µM): 58%; target mRNA inhibition (1.25 µM): 81%; target mRNA inhibition (5 µM): 83%
2 | GCATGCGCAGTGACGC (sugars k3 d10 k3, PS) | 36% | 
3 | GCATTAATGCCACCCT (sugars kkdddddddddkekek, PS) | 24% | 
4 | GCATTAGATGGTAAGG (sugars k3 d10 k3, PS) | 64% | 
5 | GCCACAGATTTTCTCC (sugars k3 d10 k3, PS) | 49% | 
6 | GCCAGATTGCACAAAC (sugars k3 d10 k3, PS) | 60% | 
7 | GCCCATCCCCTAAGTT (sugars k3 d10 k3, PS) | 33% | 
8 | GCCCTTAAGTCATTTT (sugars k3 d10 k3, PS) | 25% | 
9 | GCCGCACACTGAAGCC (sugars k3 d10 k3, PS) | 25% | 
10 | GCCTAGTTACAAACCA (sugars k3 d10 k3, PS) | 56% | 
11 | GCCTAGTTGCAATGAG (sugars k3 d10 k3, PS) | 61% | 
12 | GCCTGCTGAAACTTGA (sugars k3 d10 k3, PS) | 18% | 
13 | GCGCTTATTAATATCC (sugars k3 d10 k3, PS) | 3% | 
14 | GCTAAGTAGTAATTCT (sugars k3 d10 k3, PS) | 57% | 
15 | GCTACTTGAACAGTCT (sugars k3 d1 m1 d8 k3, PS) | 82% | 
16 | GCTACTTGAACAGTCT (sugars k3 d9 k3 e1, PS) | 60% | 
17 | GCTATAGTAATTGCTA (sugars k3 d10 k3, PS) | 33% | 
18 | GCTCCATAATAATAGC (sugars k3 d9 k3 e1, PS) | 8% | 
19 | GCTCCATAATAATAGC (sugars k3 d10 k3, PS) | 21% | 
20 | GCTGAGAGTTATCTGG (sugars k3 d10 k3, PS) | 65% | 
21 | GCTGCATTAATGCCAC (sugars k3 d10 k3, PS) | 46% | 
22 | GCTGCCTGCTGAAACT (sugars k3 d10 k3, PS) | 38% | 
23 | GCTGCTAGTGCCAAAC (sugars kkdddddddddkekek, PS) | 62% | 
24 | GCTGGATATACTGTCC (sugars k3 d10 k3, PS) | 36% | 

Row | Sequence | target mRNA inhibition (1 µM) | further results
25 | GCTGGTAAAGGTAAGG (sugars k3 d10 k3, PS) | 65% | 
26 | GCTTAATTTTCGGGTT (sugars k3 d10 k3, PS) | 36% | 
27 | GCTTACGACAGGTCAT (sugars k3 d10 k3, PS) | 73% | 
28 | GCTTAGTTCATTGTGA (sugars k3 d10 k3, PS) | 45% | 
29 | GCTTTAATTTTTGAGC (sugars k3 d10 k3, PS) | 26% | 
30 | GCTTTGCAGCATTGAT (sugars k3 d10 k3, PS) | 61% | 
31 | GCTTTTGTCCACCTTT (sugars k3 d9 k3 e1, PS) | 81% | target mRNA inhibition (0.02 µM): 0%; target mRNA inhibition (0.078 µM): 17%; target mRNA inhibition (0.313 µM): 37%; target mRNA inhibition (1.25 µM): 69%; target mRNA inhibition (5 µM): 83%
32 | GCTTTTGTGATCCAAA (sugars k3 d10 k3, PS) | 43% | 
33 | GGAAATTGTTGCTGTT (sugars k3 d10 k3, PS) | 46% | 
34 | GGAACAATATGGGATG (sugars k3 d10 k3, PS) | 36% | 
35 | GGAATGCTACTTGAAC (sugars k3 d9 k3 e1, PS) | 68% | 
36 | GGAAUGCTACTTGAAC (sugars k3 d1 m1 d8 k3, PS) | 62% | 
37 | GGAGATATAACATTAC (sugars k3 d10 k3, PS) | 70% | target mRNA inhibition (0.02 µM): 10%; target mRNA inhibition (0.078 µM): 10%; target mRNA inhibition (0.313 µM): 42%; target mRNA inhibition (1.25 µM): 68%; target mRNA inhibition (5 µM): 88%
38 | GGAGTGCATCTTAAGA (sugars k3 d9 k3 e1, PS) | 40% | 
39 | GGAGTGCATCTTAAGA (sugars kkdddddddddkekek, PS) | 34% | 
40 | GGAGUGCATCTTAAGA (sugars k3 d1 m1 d8 k3, PS) | 32% | 
41 | GGATAGTGAACATACA (sugars k3 d10 k3, PS) | 62% | 
42 | GGATATACTGTCCCAG (sugars k3 d10 k3, PS) | 9% | 
43 | GGATCTAGAACACTTG (sugars k3 d10 k3, PS) | 32% | 
44 | GGATGTTGACCTCAAA (sugars k3 d10 k3, PS) | 5% | 
45 | GGATTAATCATGGGAC (sugars k3 d10 k3, PS) | 44% | 
46 | GGATTAATTCCCTTCC (sugars k3 d10 k3, PS) | 10% | 
47 | GGATTGCAGAAGAGTA (sugars k3 d10 k3, PS) | 76% | target mRNA inhibition (0.02 µM): 0%; target mRNA inhibition (0.078 µM): 13%; target mRNA inhibition (0.313 µM): 47%; target mRNA inhibition (1.25 µM): 77%; target mRNA inhibition (5 µM): 74%
48 | GGCAAACCTTGAATGA (sugars k3 d10 k3, PS) | 61% | 

Row | Sequence | target mRNA inhibition (1 µM) | further results
49 | GGCAAATTTGCTGGAA (sugars k3 d10 k3, PS) | 54% | 
50 | GGCACTAAAGGTTTCT (sugars k3 d10 k3, PS) | 62% | target mRNA inhibition (0.02 µM): 0%; target mRNA inhibition (0.078 µM): 26%; target mRNA inhibition (0.313 µM): 41%; target mRNA inhibition (1.25 µM): 66%; target mRNA inhibition (5 µM): 75%
51 | GGCAGTAAAGTGCTAA (sugars k3 d10 k3, PS) | 62% | 
52 | GGCAGTTGAAGTTGAT (sugars k3 d10 k3, PS) | 46% | 
53 | GGCATGGCTACAGATT (sugars k3 d10 k3, PS) | 69% | 
54 | GGCTAAAATGGTCATC (sugars k3 d10 k3, PS) | 75% | 
55 | GGCTACAGATTGGAAT (sugars k3 d1 m1 d8 k3, PS) | 40% | 
56 | GGCTACAGATTGGAAT (sugars k3 d9 k3 e1, PS) | 28% | 
57 | GGCTAGGGAAATCTTT (sugars k3 d10 k3, PS) | 57% | 
58 | GGCTATAACTGGAAGG (sugars k3 d10 k3, PS) | 52% | 
59 | GGCTTATGAAGTTAGT (sugars k3 d10 k3, PS) | 59% | 
60 | GGGAGGTAGCTTTTGT (sugars kkdddddddddkekek, PS) | 66% | 
61 | GGGTCCACTTTTGGTG (sugars k3 d10 k3, PS) | 13% | 
62 | GGTAAGGAATCCCTTC (sugars k3 d10 k3, PS) | 43% | 
63 | GGTAATTAATCTTGTT (sugars k3 d10 k3, PS) | 58% | 
64 | GGTCACCTTTCATAAT (sugars k3 d1 m1 d8 k3, PS) | 48% | 
65 | GGTCACCTTTCATAAT (sugars k3 d9 k3 e1, PS) | 49% | 
66 | GGTCAGTAGAGAGCAT (sugars k3 d10 k3, PS) | 79% | 
67 | GGTCATTTAGAATACG (sugars k3 d10 k3, PS) | 39% | 
68 | GGTGGACTTCAGAGTT (sugars k3 d10 k3, PS) | 26% | 
69 | GGTGGTAACGGTGATC (sugars k3 d10 k3, PS) | 31% | 
70 | GTAAATGATGGCAGGA (sugars k3 d10 k3, PS) | 34% | 
71 | GTAAGCTGAGAGTTCT (sugars k3 d10 k3, PS) | 49% | 
72 | GTAAGGTAAAGTCTAA (sugars k3 d10 k3, PS) | 37% | 

Row | Sequence | target mRNA inhibition (1 µM) | further results
73 | GTAAGTATTCCATCTA (sugars k3 d1 m1 d8 k3, PS) | 43% | 
74 | GTAAGTATTCCATCTA (sugars k3 d9 k3 e1, PS) | 39% | 
75 | GTAAGTATTCCATCTA (sugars kkdddddddddkekek, PS) | 53% | 
76 | GTAATAAAGTCCAGAA (sugars k3 d10 k3, PS) | 66% | 
77 | GTAATAGCCAGTACAG (sugars k3 d9 k3 e1, PS) | 62% | 
78 | GTAATCACAAGTAAGG (sugars k3 d9 k3 e1, PS) | 56% | 
79 | GTAATGAGAACAATCT (sugars k3 d10 k3, PS) | 48% | 
80 | GTAATTGCTATAGTAA (sugars k3 d10 k3, PS) | 33% | 
81 | GTAATTGGCTCTTGAG (sugars k3 d10 k3, PS) | 44% | 
82 | GTAAUAGCCAGTACAG (sugars k3 d1 m1 d8 k3, PS) | 62% | 
83 | GTACAAATTTATGCCA (sugars k3 d10 k3, PS) | 45% | 
84 | GTAGAATTGTCTGTTA (sugars k3 d10 k3, PS) | 51% | 
85 | GTAGCTTTTGTCCACC (sugars kkdddddddddkekek, PS) | 34% | 
86 | GTAGGCTAAACCCTGG (sugars k3 d10 k3, PS) | 62% | 
87 | GTAGTGTAAGCTGAGA (sugars k3 d10 k3, PS) | 81% | 
88 | GTATAGCTGCATTTCT (sugars k3 d10 k3, PS) | 35% | 
89 | GTATAGTATTCTTCAC (sugars k3 d10 k3, PS) | 81% | target mRNA inhibition (0.02 µM): 15%; target mRNA inhibition (0.078 µM): 4%; target mRNA inhibition (0.313 µM): 29%; target mRNA inhibition (1.25 µM): 61%; target mRNA inhibition (5 µM): 86%
90 | GTATAGTTATCTTCTC (sugars k3 d1 m1 d8 k3, PS) | 54% | 
91 | GTATAGTTATCTTCTC (sugars k3 d10 k3, PS) | 59% | 
92 | GTATCTTATAAGACTA (sugars k3 d9 k3 e1, PS) | 72% | 
93 | GTATGTTTATGTAAGC (sugars k3 d9 k3 e1, PS) | 71% | 
94 | GTATGTTTATGTAAGC (sugars k3 d10 k3, PS) | 80% | target mRNA inhibition (0.02 µM): 0%; target mRNA inhibition (0.078 µM): 16%; target mRNA inhibition (0.313 µM): 33%; target mRNA inhibition (1.25 µM): 77%; target mRNA inhibition (5 µM): 87%
95 | GTATTCCATCTATCAG (sugars k3 d10 k3, PS) | 52% | 
96 | GTCATAAAAATCGCTG (sugars k3 d10 k3, PS) | 72% | target mRNA inhibition (0.02 µM): 25%; target mRNA inhibition (0.078 µM): 34%; target mRNA inhibition (0.313 µM): 51%; target mRNA inhibition (1.25 µM): 70%; target mRNA inhibition (5 µM): 86%
